# Source: US20060252040A1, “Strand specific detection and quantification” (priority 2002, published 2006)
# How the values were obtained:
# [1] = system: RNA viruses including Dengue; conditions: Koff et al., 1982; Sidwell, 1979; cited from earlier work
# Dengue 2 virus [2] = experiment: Plaque assay of supernatants from Dengue-infected BHK-21 cells grown with ribavirin; type: cell-based; conditions: m.o.i 0.00125, supernatants harvested day 3 post-infection, varying concentrations of ribavirin
# Description: (§1) Dengue virus infection and titration: Monolayers of C6/36 or BHK-21 cells were grown in 24 well plates and infected the next day with Dengue 2 virus. After adsorption for 1 hour, unbound viruses were removed by aspiration, the cells rinsed with PBS and grown in their respective maintenance media. Cells without Dengue virus infection, or inoculated with heat-inactivated virus (30 minutes at 56° C.), were used as controls. In some experiments, BHK-21 cells were infected with Dengue 2 virus and grown in the absence or presence of varying concentrations of ribavirin (1-fl-D-ribofuranosyl-1,2,4-triazole-3-carboximide; Sigma, St. Louis, Mo.) to inhibit viral transcription. Cytotoxicity of the cells due to ribavirin treatment was determined by CytoTox 96® Non-Radioactive Cytotoxicity Assay (Promega Corporation, Madison, Wis.). The titer of Dengue 2 virus was determined by plaque assay with BHK-21 cells. […] At day 6 post-infection, cells were fixed and stained with 1% crystal violet-4% formalin solution in phosphate-buffered saline (PBS), and the plaque numbers counted. […]
# (§2) To correlate the levels of replicating virus and the effects of ribavirin, BHK-21 cells were initially infected with Dengue virus at an m.o.i of 0.00125, in the absence or in the presence of varying concentrations of ribavirin. […] The results further validated the utility of this method to quantify the replicative form of the virus.
# BHK-21 cells = experiment: Cytotoxicity by LDH release (CytoTox 96 Non-Radioactive Cytotoxicity Assay); type: cell-based, hamster; conditions: highest concentration used, 10 ug/ml, day 3 post-infection
# Description: as §1, §2
# Dengue 2 virus [3] = experiment: RT and real-time quantitative PCR of Dengue RNA in infected BHK-21 cells treated with ribavirin; type: cell-based; conditions: m.o.i 0.00125, day 3 post-infection
# Description: RT-PCR and real-time quantitative PCR of Dengue nucleic acids: Total RNA was prepared from infected cells using the TRizol® Reagent (Invitrogen Life Technologies, Carlsbad, Calif.) according to manufacturer's instructions. The RNA obtained was quantified by spectrophotometry, and their integrity analyzed by gel electrophoresis. The RT reaction was performed at 42° C. on 2-5 ug of total RNA as described (21) using 100 U of M-MLV (Promega Corporation, Madison, Wis.) with either 12.5 pmoles of random hexamers (Promega Corporation, Madison, Wis.) or DNS-1 (5′-[…]-3′ (SEQ ID NO: 5)) in a total volume of 10 ul. […] The calculated ΔG of the hairpin loop at the RT step was −2.9 kcal/mol, with a Tm (melting temperature) of 62° C. […] However, with the conditions used for PCR, the ΔG and the Tm of the hairpin loop were −0.4 kcal/mol and 64° C. respectively.
# All real-time quantitative PCR was performed on the iCycler jQ™ Multi-Color Real Time PCR Detection System (Bio-Rad, Hercules, Calif.). The threshold cycles (Ct) were calculated using the Optical interface v2.3B (Bio-Rad, Hercules, Calif.). […] Unless stated otherwise, all real-time quantitative PCR was performed with 40 cycles of 30 s denaturation at 95° C., 30 s annealing at 60° C. and 30 s extension at 72° C. […]
smiles,measurement,setting,value
"NC(=O)c1ncn([C@@H]2O[C@H](CO)[C@@H](O)[C@H]2O)n1 [Ribavirin, 1-fl-D-ribofuranosyl-1,2,4-triazole-3-carboximide]",replication of RNA viruses,[1],known to inhibit the replication of many RNA viruses including Dengue
same,viral replication (relative PFU),Dengue 2 virus [2],inhibited viral replication in a concentration dependent manner
same,cell death (LDH release),BHK-21 cells,did not induce detectable cell death
same,"replicative, negative Dengue RNA strand","Dengue 2 virus [3]; RT with DNS-1, increasing concentrations of ribavirin",concomitant decrease with increasing concentrations of ribavirin
same,"viral transcripts, random hexamer-primed RT, primers to the envelope region",Dengue 2 virus [3]; varying concentrations of ribavirin,corresponding decrease in viral transcripts
